Reference: PubChem BioAssay (NCI)
Where “and” joins values, the source holds several entries; their conditions need not be identical. Equal entries are not always repeated.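 Values below derive from 48-hour exposures of cells grown in 96-well plates, with endpoints linearly interpolated between the two concentrations bracketing the appropriate inhibition level. GI50 is the concentration that inhibits growth by half. Definition used: TGI = concentration required for complete inhibition of growth.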

Key:
Assay in all cases: inhibition of tumour cell growth, NCI panel, 48 h
786-0 renal = test system: 786-0 renal
CCRF-CEM leukemia = test system: CCRF-CEM leukemia
COLO 205 colon = test system: COLO 205 colon
DMS 114 small cell lung = test system: DMS 114 small cell lung
DMS 273 small cell lung = test system: DMS 273 small cell lung
M19-MEL melanoma = test system: M19-MEL melanoma
NCI-H522 lung = test system: NCI-H522 lung
UACC-257 melanoma = test system: UACC-257 melanoma
XF 498 CNS = test system: XF 498 CNS
SF-539 CNS = test system: SF-539 CNS
SNB-78 CNS = test system: SNB-78 CNS
BT-549 breast = test system: BT-549 breast
MDA-MB-435 = test system: MDA-MB-435

Compound | TGI (786-0 renal) | TGI (CCRF-CEM leukemia) | TGI (COLO 205 colon) | TGI (DMS 114 small cell lung) | TGI (DMS 273 small cell lung) | TGI (M19-MEL melanoma) | TGI (NCI-H522 lung) | TGI (UACC-257 melanoma) | TGI (XF 498 CNS) | TGI (SF-539 CNS) | TGI (SNB-78 CNS) | TGI (BT-549 breast) | GI50 (CCRF-CEM leukemia) | TGI (MDA-MB-435) | GI50 (NCI-H522 lung) | GI50 (SF-539 CNS) | GI50 (UACC-257 melanoma) | GI50 (BT-549 breast)
COc1ccc2c(c1OC)C(=O)C2 | > 100 µM | > 100 µM | > 100 µM | > 100 µM | > 100 µM | > 100 µM | > 100 µM | > 100 µM | > 100 µM |  |  |  |  |  |  |  |  | 
COc1ccc(C2CC(c3sc(Nc4ccc(C)cc4)nc3C)=NN2)cc1 (stereo unspecified) |  | 54.7 µM | 26.9 µM | 30 µM | 38.5 µM | > 59 µM | 31.8 µM | 32.6 µM | 36.7 µM | 29 µM | 52 µM |  |  |  |  |  |  | 
COc1ccc2[nH]c3ccc4cc[n+](CCN5CCC(C6CCN(CC[n+]7ccc8ccc9[nH]c%10ccc(OC)cc%10c9c8c7)CC6)CC5)cc4c3c2c1 | 50 µM | 25.4 µM and 16.8 µM | > 50 µM | 4.08 µM | > 100 µM | 16.1 µM | > 50 µM and 5.27 µM | 50 µM and > 100 µM | > 75.9 µM | 50 µM and > 100 µM | 66.4 µM | 50 µM | 0.566 µM | > 50 µM | > 50 µM | 1.26 µM | 12.1 µM | 
Nc1nnc(N)n1N | > 100 µM | > 100 µM | > 100 µM | > 100 µM | > 100 µM | > 100 µM | > 100 µM | > 100 µM | > 100 µM | > 100 µM | > 100 µM |  |  |  |  |  |  | 
Cc1ccc(C(=O)Nc2ccc(S(=O)(=O)O)c3cc(S(=O)(=O)O)cc(S(=O)(=O)O)c23)cc1NC(=O)c1cccc(NC(=O)Nc2cccc(C(=O)Nc3cc(C(=O)Nc4ccc(S(=O)(=O)O)c5cc(S(=O)(=O)O)cc(S(=O)(=O)O)c45)ccc3C)c2)c1 | > 100 µM | > 100 µM | > 100 µM | > 100 µM | > 100 µM | > 100 µM | > 100 µM | > 100 µM | 90.5 µM | > 100 µM | > 100 µM | > 100 µM |  | > 100 µM |  |  |  | 
CC(C)(C)OC(=O)NC(CSCc1ccc(C(=O)c2ccccc2)cc1)C(=O)N1CCN(CCCCN2c3ccccc3Sc3cc(N=[N+]=[N-])ccc32)CC1 (stereo unspecified) | > 100 µM | > 100 µM | > 100 µM |  |  |  | > 100 µM | > 100 µM |  | > 100 µM |  | > 100 µM |  | > 100 µM |  |  |  | 
CC(C#N)(NO)C(C)(C#N)NO (stereo unspecified) | > 100 µM | > 100 µM | > 100 µM |  |  |  | > 100 µM | > 100 µM |  | > 100 µM |  | > 100 µM |  | > 100 µM |  |  |  | 
C/C(Cc1ccc2c(c1)OCO2)=N\N=c1\sc2ccccc2n1C | > 100 µM | > 100 µM | > 100 µM |  |  |  | > 100 µM | > 100 µM |  | > 100 µM |  | > 100 µM |  | > 100 µM |  |  |  | 
CCC1(O)C(=O)OCc2c1cc1n(c2=O)Cc2cc3cc4c(cc3nc2-1)OCO4 (stereo unspecified) | 0.102 µM |  | 1.79 µM | 0.0284 µM | 0.0151 µM | 0.205 µM | 0.383 µM | 0.822 µM | 0.225 µM |  | > 57.8 µM | > 100 µM |  | 9.1 µM |  |  |  | < 0.01 µM
COc1cc(/C=C/C(=O)CC(=O)/C=C/c2cc(C)c(O)c(OC)c2)cc(C)c1O | > 100 µM | > 100 µM | > 100 µM |  |  |  | > 100 µM | > 100 µM |  | > 100 µM |  | > 100 µM |  | > 100 µM |  |  |  | 
COc1cc(/C=C2\C(=O)N(c3cccc(NC(C)=O)c3)C(c3ccccc3)S2(=O)=O)cc(OC)c1OC (stereo unspecified) | > 100 µM | > 100 µM | > 100 µM |  |  |  | > 100 µM | > 100 µM |  | > 100 µM |  | > 100 µM |  | > 100 µM |  |  |  | 
Cc1cc(=O)[nH]c2cc(NC(=O)C(C)NC(=O)C(C)NC(=O)C(C)NC(=O)OC(C)(C)C)ccc12 (stereo unspecified) | > 15 µM | > 15 µM | > 15 µM |  |  |  | > 15 µM | > 15 µM |  | > 15 µM |  | > 15 µM |  | > 15 µM |  |  |  | 
CN(C)CCCNc1ccnc2c([N+](=O)[O-])cccc12 | > 100 µM | 96 µM | 5.34 µM | 5.56 µM | 32.8 µM | 5.82 µM | 38.2 µM | 30.9 µM | 28.2 µM | 44.5 µM | > 100 µM |  |  |  |  |  |  | 
Nc1cc(C2CCCc3c2[nH]c2ccccc32)ccc1O (stereo unspecified) | > 100 µM | > 100 µM | > 100 µM |  |  |  | > 100 µM | > 100 µM |  | > 100 µM |  | > 100 µM |  | 33.2 µM |  |  |  | 
N=c1oc2cc(O)ccc2cc1C(=O)Nc1ccccn1 | 39.3 µM | 94.2 µM | 32.8 µM |  |  |  | 13 µM | > 100 µM |  | > 100 µM |  | > 100 µM |  | > 100 µM |  |  |  | 
CN1C/C(=C\c2cccs2)C2=NN(c3ccccc3)C(c3cccs3)C2C1 (stereo unspecified) | > 44.7 µM | 5.95 µM | > 100 µM |  |  |  | > 100 µM | > 100 µM |  | > 100 µM |  | > 100 µM |  | 3.86 µM |  |  |  | 
O=C(O)c1ccc2c(O)c(O)ccc2c1 | 43.9 µM | > 31.6 µM | > 64 µM |  |  |  | 36.4 µM | 50.5 µM |  | > 100 µM |  | 40.8 µM |  | 34.7 µM |  |  |  | 
COc1ccc(SCc2cc(OC)ccc2OC)cc1 | > 100 µM | > 96.4 µM | > 61 µM |  |  |  | > 100 µM | > 100 µM |  | > 100 µM |  | > 74.3 µM |  | 13 µM |  |  |  | 
